In article PMC12677653, “Inhibition of Tumor Lipogenesis and Growth by Peptide‐Based Targeting of SREBP Activation” (Advanced Science, 2025):

Assays:
Huh7 cells = assay: Triglyceride (TG) detection assay, Huh7; assay type: cell-based, human; settings: peptide 25 µM, IGF1 100 ng/mL 24 h, n = 3
Description: Figure 1 The Insig1/2 loop 1 peptide binds to S90‐phosphorylated PCK1 and blocks PCK1‐mediated SREBP activation and tumor cell proliferation. Immunoblotting analyses were performed using the indicated antibodies; representative results from three independent experiments are shown (IP, immunoprecipitation; WB, western blot). a) Huh7 cells expressing various Insig1 (top) or Insig2 (bottom) truncation mutants were treated with or without IGF1 (100 ng mL^−1) for 1 h. b,c) Biolayer interferometry assays (Sartorius Octet) were employed to measure the binding affinity of Insig1/2 loop 1 peptide to GST‐PCK1 or GST‐PCK1 pS90 proteins. […] Statistical significance was determined by one‐way analysis of variance (ANOVA). g) Following pretreatment with Insig1/2 loop 1 peptide (15 µM) and IGF1 stimulation (100 ng mL^−1, 8 h), Huh7 cells were subjected to immunofluorescence analysis (scale bar: 10 µm). h) Quantitative PCR analysis of SREBP1 target gene GPAM in Huh7 cells pretreated with Insig1/2 loop 1 peptide (15 µM) and stimulated with IGF1 (100 ng mL^−1) for 10 h. […] Statistical significance was determined by one‐way analysis of variance (ANOVA). i) Quantitative PCR analysis of SREBP1 target gene FASN in Huh7 cells pretreated with Insig1/2 loop 1 peptide (15 µM) and stimulated with IGF1 (100 ng mL^−1) for 10 h. […]

[1] = test system: lipid accumulation in tumor tissues; assay: Oil Red O staining of tumor tissues; assay type: in vivo, BALB/c athymic nude mice; settings: cryosections of Huh7 tumors, n = 4; peptide given as LNP 10 mg/kg iv; lenvatinib mesylate 2 mg/kg oral
Description: Representative micrographs are shown (scale bar: 20 µm). b,c) Cryosections of mouse tumor tissues were prepared for histological analysis. (b) Lipid accumulation was assessed by Oil Red O staining. Representative micrographs are shown (scale bar: 20 µm). (c) Apoptotic cells were detected by TUNEL assay. Representative micrographs are shown (scale bar: 20 µm). d,e) Quantitative analysis of (d) apoptotic areas (TUNEL‐positive regions) and (e) lipid droplet counts (Oil Red O‐positive particles) was performed. Data represent the mean ± SD (n = 4). Statistical significance was determined by one‐way analysis of variance (ANOVA). ** p < 0.01, **** p < 0.0001, ns, no significance.
Cryosections 6–8 µm in thickness were air‐dried and fixed with formaldehyde for 5–10 min. Then, the slides were placed in absolute propylene glycol for 2–5 min and stained with 0.5% Oil red O dye. After staining, the slides were rinsed, counterstained with Mayer's hematoxylin for 1 min, and mounted in glycerin.

Hep3B cells = assay: Triglyceride (TG) detection assay, Hep3B; assay type: cell-based, human; settings: peptide 25 μM, IGF1 100 ng/mL 24 h, n = 3
Description: Cells were harvested and processed for triglyceride (TG) quantification using the Amplex Red Triglyceride Assay Kit (Beyotime, Catalog No. S0129S) according to the manufacturer's instructions. Briefly, collect 1 million cells and add 200 µL of isopropanol. Centrifuge at 12 000 × g for 3–5 min at 4 °C, and collect the supernatant for subsequent analysis. Dilute the supernatant tenfold with assay buffer, and then add 50 µL of the diluted sample to a 96‐well black plate, add 2 µL of lipase, and mix thoroughly. Incubate at 37 °C for 20 min. Then, add 50 µL of the triglyceride detection working solution and mix well, incubate at 37 °C for 60 min in the dark. Set the excitation wavelength to 560 nm and the emission wavelength to 590 nm to measure the fluorescence intensity.
f) Intracellular triglyceride (TG) content was quantified in Hep3B cells pretreated with Insig1/2 loop 1 peptide (25 μM) and stimulated with IGF1 (100 ng ml⁻¹) for 24 h.

In the case of “RKKRRQRRRLYPCIDSHLGEPHKFKRE [Insig1/2 loop 1 peptide]”, the “IGF1-induced increase in triglycerides (TGs)” value (Huh7 cells) was “reduced”, the “lipid accumulation in tumor tissues (Oil Red O)” value [1] was “reduced lipid accumulation in tumor tissues” and the “IGF1-induced increase in triglycerides (TGs)” value (Hep3B cells) was “reduced”.
